Here are results for two compounds from ChEMBL document CHEMBL5321210, “N-adamantyl-anthranil amide derivatives: New selective ligands for the cannabinoid receptor subtype 2 (CB2R)” (Eur J Med Chem, 2023).

Assay [1] concerns THP-1. Nature of the assay: Antiinflammatory activity against LPS-activated human THP-1 monocytes assessed as increase in IL-10 production at 10 uM incubated for 24 hrs by ELISA coupled qRT-PCR analysis. Type of assay: functional, cell-based.
Assay [2] relates to THP-1. Nature of the assay: Antiinflammatory against LPS-activated human THP-1 monocytes assessed as decrease in IL-1beta production at 10 uM incubated for 24 hrs in the presence of JTE907 by ELISA coupled qRT-PCR analysis. Type of assay: functional, cell-based. (In general: An ELISA detects its analyte on a solid surface through an enzyme-linked reagent.)
Assay [3] deals with THP-1. Nature of the assay: Antiinflammatory activity in PMA-differentiated human THP-1 monocytes assessed as increase in IL-4 production at 10 uM incubated for 24 hrs in the presence of N-(adamantan-1-yl)-4-(pentylamino)-[1,1'-biphenyl]-3-carboxamide by ELISA coupled qRT-PCR analysis. In kind it is functional, cell-based.
Assay [4] deals with THP-1. The assay is described as follows: Antiinflammatory activity in human THP-1 monocytes assessed as increase in IL-4 production at 10 uM incubated for 24 hrs by ELISA coupled qRT-PCR analysis. Type of assay: functional, cell-based.
Assay [5] has as its system THP-1. Nature of the assay: Antiinflammatory activity in human THP-1 monocytes assessed as decrease in IL-1beta production at 10 uM incubated for 24 hrs in the presence of N-(adamantan-1-yl)-4-(pentylamino)-[1,1'-biphenyl]-3-carboxamide by ELISA coupled qRT-PCR analysis. Type of assay: functional, cell-based.
In assay [6] the test system is THP-1. Nature of the assay: Antiinflammatory activity in human THP-1 monocytes assessed as decrease in IL-1beta production at 10 uM incubated for 24 hrs by ELISA coupled qRT-PCR analysis relative to control. In kind it is functional. The arrangement: scale not given: the % may be the effect or the level left.
Assay [7] deals with THP-1. Nature of the assay: Antiinflammatory activity in human THP-1 monocytes assessed as decrease in IFN-gamma production at 10 uM incubated for 24 hrs in the presence of N-(adamantan-1-yl)-4-(pentylamino)-[1,1'-biphenyl]-3-carboxamide by ELISA coupled qRT-PCR analysis. Type of assay: functional, cell-based.
Assay [8] concerns THP-1. The assay is described as follows: Antiinflammatory activity in human THP-1 monocytes assessed as decrease in IFN-gamma production at 10 uM incubated for 24 hrs by ELISA coupled qRT-PCR analysis relative to control. The arrangement: scale not given: the % may be the effect or the level left. Type of assay: functional.
For assay [9], the system named is THP-1. Nature of the assay: Antiinflammatory activity against LPS-activated human THP-1 monocytes assessed as increase in IL-4 production at 10 uM incubated for 24 hrs in the presence of N-(adamantan-1-yl)-4-(pentylamino)-[1,1'-biphenyl]-3-carboxamide by ELISA coupled qRT-PCR analysis. Type of assay: functional, cell-based.
Assay [10] concerns THP-1. The assay is described as follows: Antiinflammatory activity against LPS-activated human THP-1 monocytes assessed as decrease in IFN-gamma production at 10 uM incubated for 24 hrs by ELISA coupled qRT-PCR analysis. In kind it is functional, cell-based.
The test system of assay [11] is THP-1. The assay is described as follows: Antiinflammatory activity in PMA-differentiated human THP-1 macrophages assessed as decrease in IL-1beta production at 10 uM incubated for 24 hrs in the presence of JTE907 by ELISA coupled qRT-PCR analysis. Type of assay: functional, cell-based.
Assay [12] deals with THP-1. Nature of the assay: Antiinflammatory activity in LPS-activated PMA-differentiated human THP-1 macrophages assessed as increase in IL-10 production at 10 uM incubated for 24 hrs in the presence of JTE907 by ELISA coupled qRT-PCR analysis. Type of assay: functional, cell-based.
Assay [13] concerns THP-1. Nature of the assay: Antiinflammatory activity in PMA-differentiated human THP-1 macrophages assessed as increase in IL-4 production at 10 uM incubated for 24 hrs in the presence of JTE907 by ELISA coupled qRT-PCR analysis. In kind it is functional, cell-based.
Assay [14] has as its system THP-1. The assay is described as follows: Antiinflammatory activity in human THP-1 monocytes assessed as decrease in TNF-alpha production at 10 uM incubated for 24 hrs in the presence of JTE907 by ELISA coupled qRT-PCR analysis. Type of assay: functional, cell-based.
The subject of assay [15] is THP-1. Nature of the assay: Antiinflammatory activity against LPS-activated human THP-1 monocytes assessed as decrease in IFN-gamma production at 10 uM incubated for 24 hrs in the presence of N-(adamantan-1-yl)-4-(pentylamino)-[1,1'-biphenyl]-3-carboxamide by ELISA coupled qRT-PCR analysis. Type of assay: functional, cell-based.
The test system of assay [16] is THP-1. The assay is described as follows: Antiinflammatory activity in human THP-1 monocytes assessed as decrease in TNF-alpha production at 10 uM incubated for 24 hrs by ELISA coupled qRT-PCR analysis relative to control. In kind it is functional. The arrangement: scale not given: the % may be the effect or the level left.
Assay [17] has as its system THP-1. The assay is described as follows: Antiinflammatory activity in PMA-differentiated human THP-1 macrophages assessed as decrease in IL-6 production at 10 uM incubated for 24 hrs in the presence of JTE907 by ELISA coupled qRT-PCR analysis. Type of assay: functional, cell-based.
Assay [18] relates to THP-1. The assay is described as follows: Antiinflammatory activity against LPS-activated human THP-1 monocytes assessed as decrease in IL-6 production at 10 uM incubated for 24 hrs by ELISA coupled qRT-PCR analysis. In kind it is functional, cell-based.
The test system of assay [19] is THP-1. Nature of the assay: Antiinflammatory activity in human THP-1 monocytes assessed as decrease in IL-6 production at 10 uM incubated for 24 hrs by ELISA coupled qRT-PCR analysis relative to control. In kind it is functional. Also noted: scale not given: the % may be the effect or the level left.
The test system of assay [20] is THP-1. The assay is described as follows: Antiinflammatory activity against LPS-activated human THP-1 monocytes assessed as increase in IL-4 production at 10 uM incubated for 24 hrs by ELISA coupled qRT-PCR analysis. In kind it is functional, cell-based.
The test system of assay [21] is THP-1. Nature of the assay: Antiinflammatory activity against LPS-activated PMA-differentiated human THP-1 monocytes assessed as increase in IL-10 production at 10 uM incubated for 24 hrs in the presence of N-(adamantan-1-yl)-4-(pentylamino)-[1,1'-biphenyl]-3-carboxamide by ELISA coupled qRT-PCR analysis. In kind it is functional, cell-based.
For assay [22], the system named is THP-1. Nature of the assay: Antiinflammatory activity against LPS-activated human THP-1 monocytes assessed as decrease in TNF-alpha production at 10 uM incubated for 24 hrs by ELISA coupled qRT-PCR analysis. In kind it is functional, cell-based.
In assay [23] the test system is THP-1. Nature of the assay: Antiinflammatory activity against LPS-activated human THP-1 monocytes assessed as decrease in IL-1beta production at 10 uM incubated for 24 hrs by ELISA coupled qRT-PCR analysis. Type of assay: functional, cell-based.
The subject of assay [24] is THP-1. Nature of the assay: Antiinflammatory activity against LPS-activated PMA-differentiated human THP-1 macrophages assessed as decrease in IFN-gamma production at 10 uM incubated for 24 hrs by ELISA coupled qRT-PCR analysis relative to control. Type of assay: functional. The arrangement: scale not given: the % may be the effect or the level left.
Assay [25] has as its system THP-1. Nature of the assay: Antiinflammatory activity in PMA-differentiated human THP-1 macrophages assessed as reduction in TNF-alpha production at 1 to 10 uM incubated for 24 hrs by ELISA coupled qRT-PCR analysis relative to control. Also noted: scale not given: the % may be the effect or the level left. In kind it is functional. The following applies: dose 1-10 µM.

For assay [26], the system named is THP-1. The assay is described as follows: Antiinflammatory activity in PMA-differentiated human THP-1 macrophages assessed as decrease in IL-6 production at 1 to 10 uM incubated for 24 hrs in the presence of JTE907 by ELISA coupled qRT-PCR analysis. In kind it is functional, cell-based. As to conditions: dose 1-10 µM.
The subject of assay [27] is THP-1. Nature of the assay: Antiinflammatory activity in LPS-activated PMA-differentiated human THP-1 macrophages assessed as decrease in IFN-gamma production at 1 to 10 uM incubated for 24 hrs in the presence of JTE907 by ELISA coupled qRT-PCR analysis. Type of assay: functional, cell-based. As to conditions: dose 1-10 µM.
In assay [28] the test system is THP-1. Nature of the assay: Antiinflammatory activity in human THP-1 monocytes assessed as decrease in IL-1beta production at 1 to 10 uM incubated for 24 hrs in the presence of JTE907 by ELISA coupled qRT-PCR analysis. Type of assay: functional, cell-based. As to conditions: dose 1-10 µM.
Assay [29] has as its system THP-1. The assay is described as follows: Antiinflammatory against LPS-activated human THP-1 monocytes assessed as increase in IL-4 production at 1 to 10 uM incubated for 24 hrs in the presence of JTE907 by ELISA coupled qRT-PCR analysis. Type of assay: functional, cell-based. The following applies: dose 1-10 µM.

Activity calls are given as the source filed them. No cut-off for these calls is given here.

As to `O=C(NC1CCCCC1)c1cn(CCN2CCOCC2)c2cc(Cl)ccc2c1=O`, the outcome in assay [1], in [4], in assay [10], in assay [18], in [20] and in assay [22] was Active. Besides, the outcome in assay [23] was Active. For the same compound, the result in assay [2], in assay [3], in assay [5], in assay [7], in assay [9] and in [11] was inactive. For the same compound, the outcome in [12], in assay [13], in assay [14], in assay [15], in [17] and in assay [21] was inactive. Also, the Activity was determined as 60% in assay [6]; 40% in assay [8]; 60% in assay [16]; 60% in assay [19]; 70% in [24].
For the compound `CCCCCNc1ccccc1C(=O)NC12CC3CC(CC(C3)C1)C2`, the result in assay [1], in [10], in assay [18], in assay [20], in [22] and in assay [23] was Active. For the same compound, the Activity in [25] was found to be 50%; in assay [6], 50%; in [8] it was 50%; in assay [16], 50%; in [19], 40%. Besides, the outcome in [26], in assay [27], in assay [28] and in assay [29] was inactive.
